Here are results for ten molecules from patent US20260337208A1, “HETEROCYCLIC DERIVATIVES AS JANUS KINASE INHIBITORS” (CHIESI FARMACEUTICI S.P.A., priority 2022, published 2026).

Experiment [1] deals with T1, JAK3 (Homo sapiens, UniProt P52333).
T1 sequence (P52333 1-1124): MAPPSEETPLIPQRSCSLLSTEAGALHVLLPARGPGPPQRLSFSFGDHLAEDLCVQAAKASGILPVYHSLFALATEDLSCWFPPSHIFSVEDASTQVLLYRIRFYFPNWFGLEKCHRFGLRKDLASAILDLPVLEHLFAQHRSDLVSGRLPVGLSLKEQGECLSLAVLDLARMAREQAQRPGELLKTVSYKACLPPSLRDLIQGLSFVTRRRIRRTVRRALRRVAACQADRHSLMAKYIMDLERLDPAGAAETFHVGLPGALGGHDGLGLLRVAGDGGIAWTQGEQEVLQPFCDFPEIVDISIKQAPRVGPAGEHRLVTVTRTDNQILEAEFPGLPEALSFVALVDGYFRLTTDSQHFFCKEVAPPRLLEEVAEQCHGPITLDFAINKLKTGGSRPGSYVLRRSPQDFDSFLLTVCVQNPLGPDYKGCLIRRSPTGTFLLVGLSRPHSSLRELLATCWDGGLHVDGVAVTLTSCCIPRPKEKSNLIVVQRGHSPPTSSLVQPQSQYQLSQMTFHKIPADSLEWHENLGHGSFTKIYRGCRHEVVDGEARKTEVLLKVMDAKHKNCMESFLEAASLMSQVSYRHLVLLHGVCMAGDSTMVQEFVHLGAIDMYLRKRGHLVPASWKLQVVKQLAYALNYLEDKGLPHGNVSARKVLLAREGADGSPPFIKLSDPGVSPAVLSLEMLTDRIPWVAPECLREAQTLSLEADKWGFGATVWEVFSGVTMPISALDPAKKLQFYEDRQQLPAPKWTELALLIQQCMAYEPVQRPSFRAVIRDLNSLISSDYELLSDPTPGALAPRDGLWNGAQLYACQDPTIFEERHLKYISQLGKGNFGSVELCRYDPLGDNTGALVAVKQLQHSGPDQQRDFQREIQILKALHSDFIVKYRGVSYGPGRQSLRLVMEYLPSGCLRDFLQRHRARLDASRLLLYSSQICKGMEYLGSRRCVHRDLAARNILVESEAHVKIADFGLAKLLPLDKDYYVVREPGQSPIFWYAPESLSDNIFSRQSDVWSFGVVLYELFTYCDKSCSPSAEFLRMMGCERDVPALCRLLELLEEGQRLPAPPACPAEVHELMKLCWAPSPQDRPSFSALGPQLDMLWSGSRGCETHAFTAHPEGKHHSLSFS
The experiment can be described thus: Biochemical potency on JAK3, TR-FRET (LANCE Ultra kinase assay). The following applies: ATP corresponding to Km; cell-free; read-out: JAK3 inhibitory activity (pIC50) (converted). The procedure, abridged:
(§1)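 ULight-JAK-1 (Tyr1023) peptide phosphorylation at Km ATP, 1.5 h r.t.; substrate solution held peptide 30/50/20/10 nM and ATP 20/0.7/0.2/12 μM, enzyme solution 0.15/0.083/0.025/0.144 ng/μL (JAK1/JAK2/JAK3/TYK2). EDTA stop, Eu-PT66 antibody TR-FRET read at 665 nm; 11-point 5-fold dilutions from 20 μM; IC50 by variable-slope fit.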

The test system of experiment [2] is pSTAT6 in BEAS-2B human cell line. Nature of the experiment: Inhibition of IL-13 induced pSTAT6 in BEAS. The following applies: for IC50: Homo sapiens, BEAS-2B, 0.5 h, IL-13 trigger, 30 min, parent compound; for Fold difference parent vs predicted acid metabolite: ratio=IC50 predicted acid metabolite/IC50 ester. The experiment is classed as cell-based. An outline of the steps: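 BEAS-2B cells grown 48 h, pre-treated 30 min with compound, then stimulated 30 min with IL-13. Lysate pSTAT6 (Tyr641) measured by sandwich ELISA. Eleven 5-fold dilutions from 10 μM, in duplicate, fitted to IC50.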

Experiment [3] concerns the target JAK1 (Homo sapiens, UniProt P23458). The experiment can be described thus: Biochemical potency on JAK1, TR-FRET (LANCE Ultra kinase assay). The following applies: ATP corresponding to Km; cell-free; read-out: JAK1 inhibitory activity (pIC50) (converted). The procedure, abridged: as §1
Experiment [4] has as its target TYK2 (Homo sapiens, UniProt P29597). The experiment can be described thus: Biochemical potency on Tyk2, TR-FRET (LANCE Ultra kinase assay). The following applies: ATP corresponding to Km; cell-free; read-out: TYK2 inhibitory activity (pIC50) (converted). An outline of the steps:
as §1

Experiment [5] addresses JAK2 (Homo sapiens, UniProt O60674). The experiment can be described thus: Biochemical potency on JAK2, TR-FRET (LANCE Ultra kinase assay). The following applies: ATP corresponding to Km; cell-free; read-out: JAK2 inhibitory activity (pIC50) (converted). The procedure, abridged:
as §1

Bounds are passed on as bounds.

Chain of JAK1 (P23458 whole entry): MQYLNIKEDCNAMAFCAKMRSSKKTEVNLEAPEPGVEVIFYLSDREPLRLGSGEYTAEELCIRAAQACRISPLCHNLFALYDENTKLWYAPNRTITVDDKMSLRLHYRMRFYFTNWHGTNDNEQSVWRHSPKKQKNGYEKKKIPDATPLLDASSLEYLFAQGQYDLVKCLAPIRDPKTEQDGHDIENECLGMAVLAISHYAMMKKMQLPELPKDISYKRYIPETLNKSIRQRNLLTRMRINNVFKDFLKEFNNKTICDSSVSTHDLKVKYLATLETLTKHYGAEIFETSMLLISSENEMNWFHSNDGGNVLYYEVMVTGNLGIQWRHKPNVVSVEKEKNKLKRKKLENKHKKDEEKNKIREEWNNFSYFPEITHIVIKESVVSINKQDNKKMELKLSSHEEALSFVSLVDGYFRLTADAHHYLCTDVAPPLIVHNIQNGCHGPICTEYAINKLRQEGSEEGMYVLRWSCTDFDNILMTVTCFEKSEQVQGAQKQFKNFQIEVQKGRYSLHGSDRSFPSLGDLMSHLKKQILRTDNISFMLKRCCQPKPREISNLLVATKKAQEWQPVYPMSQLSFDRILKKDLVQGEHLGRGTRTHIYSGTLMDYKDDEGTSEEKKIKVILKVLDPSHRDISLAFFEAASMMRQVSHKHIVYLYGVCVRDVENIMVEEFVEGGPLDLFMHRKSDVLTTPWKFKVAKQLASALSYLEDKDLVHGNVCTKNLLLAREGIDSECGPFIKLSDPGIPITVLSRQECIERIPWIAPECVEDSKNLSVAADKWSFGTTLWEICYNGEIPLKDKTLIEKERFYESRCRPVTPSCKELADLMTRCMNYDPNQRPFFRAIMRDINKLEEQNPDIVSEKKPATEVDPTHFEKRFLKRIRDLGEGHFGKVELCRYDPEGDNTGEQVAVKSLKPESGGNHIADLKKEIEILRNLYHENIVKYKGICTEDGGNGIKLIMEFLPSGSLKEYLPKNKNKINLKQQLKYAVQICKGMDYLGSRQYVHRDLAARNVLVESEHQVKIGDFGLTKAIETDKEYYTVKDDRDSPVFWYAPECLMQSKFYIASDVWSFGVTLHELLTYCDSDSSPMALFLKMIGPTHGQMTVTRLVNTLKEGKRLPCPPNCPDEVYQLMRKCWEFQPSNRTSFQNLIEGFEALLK
Chain of TYK2 (P29597 whole entry): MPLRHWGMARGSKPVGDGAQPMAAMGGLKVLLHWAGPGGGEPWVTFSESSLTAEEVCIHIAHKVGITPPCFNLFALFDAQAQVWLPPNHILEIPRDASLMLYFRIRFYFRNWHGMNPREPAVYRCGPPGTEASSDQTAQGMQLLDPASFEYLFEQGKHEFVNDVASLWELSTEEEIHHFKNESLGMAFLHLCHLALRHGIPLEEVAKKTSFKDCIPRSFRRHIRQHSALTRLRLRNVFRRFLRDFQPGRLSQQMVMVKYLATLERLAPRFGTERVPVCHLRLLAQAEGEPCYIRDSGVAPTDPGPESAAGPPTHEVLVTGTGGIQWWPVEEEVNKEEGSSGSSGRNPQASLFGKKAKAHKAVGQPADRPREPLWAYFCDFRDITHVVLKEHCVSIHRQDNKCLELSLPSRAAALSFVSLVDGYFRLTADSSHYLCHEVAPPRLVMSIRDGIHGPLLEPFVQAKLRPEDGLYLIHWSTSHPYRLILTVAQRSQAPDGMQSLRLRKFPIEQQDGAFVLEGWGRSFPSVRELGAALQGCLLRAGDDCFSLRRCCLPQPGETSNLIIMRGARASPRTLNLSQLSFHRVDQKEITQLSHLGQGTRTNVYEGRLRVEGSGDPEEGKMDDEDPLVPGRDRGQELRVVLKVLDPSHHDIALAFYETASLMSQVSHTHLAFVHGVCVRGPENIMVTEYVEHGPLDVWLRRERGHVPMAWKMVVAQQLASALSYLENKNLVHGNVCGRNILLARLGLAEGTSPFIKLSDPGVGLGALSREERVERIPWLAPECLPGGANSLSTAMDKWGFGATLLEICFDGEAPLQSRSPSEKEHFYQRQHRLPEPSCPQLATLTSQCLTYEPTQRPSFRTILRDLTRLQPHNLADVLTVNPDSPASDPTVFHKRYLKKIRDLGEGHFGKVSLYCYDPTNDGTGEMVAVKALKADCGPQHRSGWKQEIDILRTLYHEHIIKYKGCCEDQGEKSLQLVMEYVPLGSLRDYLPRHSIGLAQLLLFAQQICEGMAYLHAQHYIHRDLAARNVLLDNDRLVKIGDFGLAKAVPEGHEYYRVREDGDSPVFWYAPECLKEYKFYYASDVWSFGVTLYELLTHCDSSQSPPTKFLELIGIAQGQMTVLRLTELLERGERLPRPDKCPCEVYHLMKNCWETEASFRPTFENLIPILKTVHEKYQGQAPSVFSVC
Chain of JAK2 (O60674 whole entry): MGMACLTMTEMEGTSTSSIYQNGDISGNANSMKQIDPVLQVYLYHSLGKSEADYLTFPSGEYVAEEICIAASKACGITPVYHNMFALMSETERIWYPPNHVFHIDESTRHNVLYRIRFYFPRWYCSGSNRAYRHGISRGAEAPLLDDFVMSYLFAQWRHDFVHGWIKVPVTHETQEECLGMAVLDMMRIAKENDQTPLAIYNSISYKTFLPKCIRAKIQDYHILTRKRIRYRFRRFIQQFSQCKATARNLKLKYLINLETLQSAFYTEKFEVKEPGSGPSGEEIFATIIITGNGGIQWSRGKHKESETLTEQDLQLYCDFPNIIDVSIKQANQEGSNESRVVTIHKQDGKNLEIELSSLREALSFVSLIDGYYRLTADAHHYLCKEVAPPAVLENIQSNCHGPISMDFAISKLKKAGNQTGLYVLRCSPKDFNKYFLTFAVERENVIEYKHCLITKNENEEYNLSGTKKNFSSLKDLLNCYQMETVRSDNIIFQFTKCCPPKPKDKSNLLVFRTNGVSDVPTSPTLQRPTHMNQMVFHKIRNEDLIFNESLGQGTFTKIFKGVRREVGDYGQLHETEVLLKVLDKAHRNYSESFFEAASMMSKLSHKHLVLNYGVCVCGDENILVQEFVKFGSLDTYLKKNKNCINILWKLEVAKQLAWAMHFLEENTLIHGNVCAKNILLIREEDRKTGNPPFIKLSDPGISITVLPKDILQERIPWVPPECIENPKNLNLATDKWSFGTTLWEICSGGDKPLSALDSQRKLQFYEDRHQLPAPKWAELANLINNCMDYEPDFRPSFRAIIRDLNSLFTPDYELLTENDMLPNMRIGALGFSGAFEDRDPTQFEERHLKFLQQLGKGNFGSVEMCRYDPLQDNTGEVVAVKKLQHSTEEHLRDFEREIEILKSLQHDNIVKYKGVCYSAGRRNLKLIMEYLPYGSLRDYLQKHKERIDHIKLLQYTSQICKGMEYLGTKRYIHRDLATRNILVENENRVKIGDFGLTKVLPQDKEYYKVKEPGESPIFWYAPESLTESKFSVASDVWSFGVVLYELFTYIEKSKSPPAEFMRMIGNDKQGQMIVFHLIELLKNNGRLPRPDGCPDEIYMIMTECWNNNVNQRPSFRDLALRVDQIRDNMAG

With `COCCOC(=O)C1CCN(CCNC(=O)c2nn(-c3cc4c(cc3OC)NCCO4)c3cc(-c4cnn5cccnc45)ncc23)CC1` [Example 16, 2-methoxyethyl 1-(2-(1-(6-methoxy-3,4-dihydro-2H-benzo[b][1,4]oxazin-7-yl)-6-(pyrazolo[1,5-a]pyrimidin-3-yl)-1H-pyrazolo[4,3-c]pyridine-3-carboxamido)ethyl)piperidine-4-carboxylate], the IC50 in experiment [1] was no more than 5.01 nM; in experiment [2] it was no more than 5.01 nM; in experiment [3] it was no more than 5.01 nM; in experiment [4], 5.01 to 50.1 nM; in experiment [5], no more than 5.01 nM. In experiment [2], the “Fold difference parent vs predicted acid metabolite” value is “kkkk (ratio≥200)”.

In the case of `COc1cc2c(cc1-n1nc(C(=O)NCCN3CCC(C(=O)OC4CCOCC4)CC3)c3cnc(-c4cnn5cccnc45)cc31)OCCN2` [Example 17, tetrahydro-2H-pyran-4-yl 1-(2-(1-(6-methoxy-3,4-dihydro-2H-benzo[b][1,4]oxazin-7-yl)-6-(pyrazolo[1,5-a]pyrimidin-3-yl)-1H-pyrazolo[4,3-c]pyridine-3-carboxamido)ethyl)piperidine-4-carboxylate], the IC50 was no more than 5.01 nM in experiment [1]; no more than 5.01 nM in experiment [2]; no more than 5.01 nM in experiment [3]; 5.01 to 50.1 nM in experiment [4]; no more than 5.01 nM in experiment [5]. In experiment [2], the “Fold difference parent vs predicted acid metabolite” value is on record as “kkkk (ratio≥200)”.

Turning to `COc1cc2c(cc1-n1nc(C(=O)NCCN3CCC(C(=O)OCC4CCOCC4)CC3)c3cnc(-c4cnn5cccnc45)cc31)OCCN2` [Example 18, (tetrahydro-2H-pyran-4-yl)methyl 1-(2-(1-(6-methoxy-3,4-dihydro-2H-benzo[b][1,4]oxazin-7-yl)-6-(pyrazolo[1,5-a]pyrimidin-3-yl)-1H-pyrazolo[4,3-c]pyridine-3-carboxamido)ethyl)piperidine-4-carboxylate], the IC50 was no more than 5.01 nM in experiment [1]; no more than 5.01 nM in experiment [2]; no more than 5.01 nM in experiment [3]; 5.01 to 50.1 nM in experiment [4]; no more than 5.01 nM in experiment [5]. For the same molecule, the “Fold difference parent vs predicted acid metabolite” value in experiment [2] is “kkkk (ratio≥200)”.

Consider `COc1cc2c(cc1-n1nc(C(=O)NCCN3CCC(C(=O)OCC4CN(C)CCO4)CC3)c3cnc(-c4cnn5cccnc45)cc31)OCCN2` (stereo not drawn) [Example 19, (4-methylmorpholin-2-yl)methyl 1-(2-(1-(6-methoxy-3,4-dihydro-2H-benzo[b][1,4]oxazin-7-yl)-6-(pyrazolo[1,5-a]pyrimidin-3-yl)-1H-pyrazolo[4,3-c]pyridine-3-carboxamido)ethyl)piperidine-4-carboxylate], for which the IC50 in experiment [1] was no more than 5.01 nM; in experiment [2] it was no more than 5.01 nM; in experiment [3] it was no more than 5.01 nM; in experiment [4] it was 5.01 to 50.1 nM; in experiment [5], no more than 5.01 nM. Besides, in experiment [2], the “Fold difference parent vs predicted acid metabolite” value was “kkkk (ratio≥200)”.

Consider `COc1cc2c(cc1-n1nc(C(=O)NCCN3CCC(C(=O)OCC(C)(C)N(C)C)CC3)c3cnc(-c4cnn5cccnc45)cc31)OCCN2` [Example 20, 2-(dimethylamino)-2-methylpropyl 1-(2-(1-(6-methoxy-3,4-dihydro-2H-benzo[b][1,4]oxazin-7-yl)-6-(pyrazolo[1,5-a]pyrimidin-3-yl)-1H-pyrazolo[4,3-c]pyridine-3-carboxamido)ethyl)piperidine-4-carboxylate], for which the IC50 is no more than 5.01 nM in experiment [1]; 5.01 to 50.1 nM in experiment [2]; no more than 5.01 nM in experiment [3]; 5.01 to 50.1 nM in experiment [4]; no more than 5.01 nM in experiment [5]. For the same molecule, in experiment [2], the “Fold difference parent vs predicted acid metabolite” value was “kkk (200>ratio≥100)”.

Consider `COc1cc2c(cc1-n1nc(C(=O)NCCN3CCC(C(=O)OC4CN(C)C4)CC3)c3cnc(-c4cnn5cccnc45)cc31)OCCN2` [Example 21, 1-methylazetidin-3-yl 1-(2-(1-(6-methoxy-3,4-dihydro-2H-benzo[b][1,4]oxazin-7-yl)-6-(pyrazolo[1,5-a]pyrimidin-3-yl)-1H-pyrazolo[4,3-c]pyridine-3-carboxamido)ethyl)piperidine-4-carboxylate], for which the IC50 in experiment [1] was no more than 5.01 nM; in experiment [2], no more than 5.01 nM; in experiment [3], no more than 5.01 nM; in experiment [4], 5.01 to 50.1 nM; in experiment [5] it was no more than 5.01 nM. Moreover, the “Fold difference parent vs predicted acid metabolite” value in experiment [2] is reported as “kkkk (ratio≥200)”.

Consider `COc1cc2c(cc1-n1nc(C(=O)NCCN3CCC(C(=O)OC4CCN(C)C4)CC3)c3cnc(-c4cnn5cccnc45)cc31)OCCN2` (stereo not drawn) [Example 22, 1-methylpyrrolidin-3-yl 1-(2-(1-(6-methoxy-3,4-dihydro-2H-benzo[b][1,4]oxazin-7-yl)-6-(pyrazolo[1,5-a]pyrimidin-3-yl)-1H-pyrazolo[4,3-c]pyridine-3-carboxamido)ethyl)piperidine-4-carboxylate], for which the IC50 is no more than 5.01 nM in experiment [1]; 5.01 to 50.1 nM in experiment [2]; 5.01 to 50.1 nM in experiment [3]; 5.01 to 50.1 nM in experiment [4]; no more than 5.01 nM in experiment [5]. Further, the “Fold difference parent vs predicted acid metabolite” value in experiment [2] is “kkk (200>ratio≥100)”.

Regarding `COc1cc2c(cc1-n1nc(C(=O)NCCN3CCC(C(=O)O[C@@H]4CCN(C)C4)CC3)c3cnc(-c4cnn5cccnc45)cc31)OCCN2` [Example 23, (R)-1-methylpyrrolidin-3-yl 1-(2-(1-(6-methoxy-3,4-dihydro-2H-benzo[b][1,4]oxazin-7-yl)-6-(pyrazolo[1,5-a]pyrimidin-3-yl)-1H-pyrazolo[4,3-c]pyridine-3-carboxamido)ethyl)piperidine-4-carboxylate], the IC50 is no more than 5.01 nM in experiment [1]; 5.01 to 50.1 nM in experiment [2]; no more than 5.01 nM in experiment [3]; 5.01 to 50.1 nM in experiment [4]; no more than 5.01 nM in experiment [5]. In addition, the “Fold difference parent vs predicted acid metabolite” value in experiment [2] is reported as “kkk (200>ratio≥100)”.

`COc1cc2c(cc1-n1nc(C(=O)NCCN3CCC(C(=O)O[C@H]4CCN(C)C4)CC3)c3cnc(-c4cnn5cccnc45)cc31)OCCN2` [Example 24, (S)-1-methylpyrrolidin-3-yl 1-(2-(1-(6-methoxy-3,4-dihydro-2H-benzo[b][1,4]oxazin-7-yl)-6-(pyrazolo[1,5-a]pyrimidin-3-yl)-1H-pyrazolo[4,3-c]pyridine-3-carboxamido)ethyl)piperidine-4-carboxylate]: the IC50 is no more than 5.01 nM in experiment [1]; 5.01 to 50.1 nM in experiment [2]; no more than 5.01 nM in experiment [3]; 5.01 to 50.1 nM in experiment [4]; no more than 5.01 nM in experiment [5]. The “Fold difference parent vs predicted acid metabolite” value in experiment [2] is “kkk (200>ratio≥100)”.

In the case of `COc1cc2c(cc1-n1nc(C(=O)NCCN3CCC(C(=O)OCC(C)(C)C#N)CC3)c3cnc(-c4cnn5cccnc45)cc31)OCCN2` [Example 25, 2-cyano-2-methylpropyl 1-(2-(1-(6-methoxy-3,4-dihydro-2H-benzo[b][1,4]oxazin-7-yl)-6-(pyrazolo[1,5-a]pyrimidin-3-yl)-1H-pyrazolo[4,3-c]pyridine-3-carboxamido)ethyl)piperidine-4-carboxylate], the IC50 in experiment [1] is no more than 5.01 nM; in experiment [2], no more than 5.01 nM; in experiment [3] it was no more than 5.01 nM; in experiment [4] it was 5.01 to 50.1 nM; in experiment [5], no more than 5.01 nM. Besides, the “Fold difference parent vs predicted acid metabolite” value in experiment [2] was “kkkk (ratio≥200)”.
